We go through 1 molecule from publication PMC4632126, “High specific selectivity and Membrane-Active Mechanism of the synthetic centrosymmetric α-helical peptides with Gly-Gly pairs” (Scientific Reports, 2015).

One experiment has as its system S. aureus ATCC29213. The format is cell-based, Staphylococcus aureus. Particulars: S. aureus 29213; lowest concentration preventing more than 99.9% growth; 37 °C, 5 h; representative of three trials. How it is done:
(§1) Minimal bactericidal concentrations (MBCs) were measured using the method which has been adopted from National Committee for Clinical Laboratory Standards (NCCLS), with modifications. In short, 50 μL peptide solutions were pipetted into microtiter plates at various concentrations ranging from 1 to 128 μM. Freshly grown bacteria were added to the each well in a density of 0.5–1 × 10^6 CFUmL^−1. Microtiter plated was incubated at 37 °C for 5 h. Fifty microliters of each incubation mixture was further serially diluted (up to 10^−3 of the initial bacterial concentration), transferred on agar plates and incubated overnight. On the following day, the number of colonies was evaluated and the initial CFU/well retrospectively calculated. The minimum bactericidal concentrations (μM) were determined as the lowest concentration of the peptides that prevented more than 99.9% bacteria growth.

Experiment [1] deals with E. coli ATCC 25922. Briefly: Flow cytometry, membrane integrity by PI staining. The format is cell-based, Escherichia coli. Particulars: peptide at 1 × MBC, PI 10 μg mL^−1, 30 min at 4 °C. How it is done: The membrane damage was determined by flow cytometry. Briefly, E. coli ATCC 25922 was grown to mid-log phase in MHB at 37 °C, harvested by centrifugation at 1,000 × g for 10 min, washed thrice with PBS and diluted to 10^5 CFU mL^−1 in the same buffer. The peptides at the concentrations of 1 × MBCs were incubated with the bacterial suspension at a fixed PI concentration of 10 μg mL^−1 for 30 min at 4 °C, and followed by the removal of the unbound dye through washing with an excess of PBS. A Fluorescence Activated Cell Sorter (FACS) flow cytometer (Becton–Dickinson, USA) was used to obtain the data with a laser excitation wavelength of 488 nm.
On the technique in general: A flow cytometer gives signals particle by particle.

In experiment [2] the test system is 3 gram-negative strains tested. Briefly: Geometric mean of MBCs and therapeutic index, gram-negative strains. The format is cell-based. To be noted: 3 gram-negative strains; >128 counted as 256 μM. How it is done:
as §1, with “In” for “Minimal bactericidal concentrations (MBCs) were measured using the method which has been adopted from National Committee for Clinical Laboratory Standards (NCCLS), with modifications. In”
(§2) The therapeutic index (TI) is calculated by the ration of the minimum hemolytic concentration (MHC) to the geometric mean of the MBC (GM) to evaluate cell selectivity of peptides.

For a further experiment, the system named is S. typhimurium ATCC14028. The class given is cell-based, Salmonella typhimurium. Particulars: S. typhimurium 14028; lowest concentration preventing more than 99.9% growth; 37 °C, 5 h; representative of three trials. As to the method: as §1
Experiment [3] deals with all of the 6 strains tested. Nature of the experiment: Geometric mean of MBCs and therapeutic index, all strains. The format is cell-based. Particulars: all 6 strains; >128 counted as 256 μM. As to the method: as §1, with “In” for “Minimal bactericidal concentrations (MBCs) were measured using the method which has been adopted from National Committee for Clinical Laboratory Standards (NCCLS), with modifications. In”
as §2

Experiment [4] relates to 3 gram-positive strains tested. To be noted: 3 gram-positive strains; >128 counted as 256 μM. As to the method: as §1, with “In” for “Minimal bactericidal concentrations (MBCs) were measured using the method which has been adopted from National Committee for Clinical Laboratory Standards (NCCLS), with modifications. In”
as §2

For a further experiment, the system named is E. coli UB1005. The class given is cell-based, Escherichia coli. Particulars: E. coli 1005; lowest concentration preventing more than 99.9% growth; 37 °C, 5 h; representative of three trials. How it is done: as §1
Experiment [5] relates to E. coli ATCC 25922. The format is cell-based, Escherichia coli. Particulars: E. coli 25922; lowest concentration preventing more than 99.9% growth; 37 °C, 5 h; representative of three trials. As to the method:
as §1

The structures appear in SMILES notation. ≈ marks a conversion by molar mass, not a printed value.

As for `CC[C@H](C)[C@H](NC(=O)CN)C(=O)NCC(=O)N[C@@H](C)C(=O)N[C@H](C(=O)N[C@@H](CC(C)C)C(=O)N[C@@H](CCCCN)C(=O)N[C@H](C(=O)N[C@@H](CC(C)C)C(=O)N[C@H](C(=O)N[C@H](C(=O)NCC(=O)N[C@@H](CC(C)C)C(=O)N1CCC[C@H]1C(=O)N[C@@H](C)C(=O)N[C@@H](CC(C)C)C(=O)N[C@H](C(=O)N[C@@H](CO)C(=O)N[C@@H](Cc1c[nH]c2ccccc12)C(=O)N[C@H](C(=O)N[C@@H](CCCCN)C(=O)N[C@@H](CCCNC(=N)N)C(=O)N[C@@H](CCCCN)C(=O)N[C@@H](CCCNC(=N)N)C(=O)N[C@@H](CCC(N)=O)C(=O)N[C@@H](CCC(N)=O)C(N)=O)[C@@H](C)CC)[C@@H](C)CC)[C@@H](C)O)[C@@H](C)O)C(C)C)C(C)C` [Melittin, reference compound], the Minimum bactericidal concentration stood at 8 µM (≈ 22.8 µg/mL) in the experiment on S. aureus ATCC29213, 2 µM (≈ 5.69 µg/mL) with S. typhimurium ATCC14028, 2 µM (≈ 5.69 µg/mL) in the experiment with E. coli UB1005 and 2 µM (≈ 5.69 µg/mL) in the experiment on E. coli ATCC 25922 [5]. In addition, in the experiment on E. coli ATCC 25922 [1], the “percentage of PI-positive cells” value stood at 99.0%. In experiment [2], the “GM (geometric mean of MBCs), Gram (−)” value came to 2 µM. In addition, the “GM (geometric mean of MBCs), Gram (+, −)” value in experiment [3] amounted to 2 µM. Moreover, the “GM (geometric mean of MBCs), Gram (+)” value in experiment [4] turned out to be 2 µM.
